Results as given in patent US7012078B2, “2-aminopyridines containing fused ring substituents” (Pfizer Inc., priority 1997, dated 2006).
Structures can show the parent of a compound that is named as a salt.

| SMILES | melting point |
| --- | --- |
| COc1ccc2[nH]c3c(c2c1)CCN(CCc1ccc(-c2cccc(N)n2)c2ccccc12)C3 | 132 to 138 °C |
| Nc1cccc(-c2ccc(OC3CN4CCC3CC4)c3ccccc23)n1 (centres unmarked) (as salt: hydrochloride) | 220 to 228 °C |
| CN1C2CCC1CC(Oc1ccc(-c3cccc(N)n3)c3ccccc13)C2 (centres unmarked) (as salt: hydrochloride) | 260 to 275 °C |
| Nc1cccc(-c2ccc(CCN3CCN(CCc4ccccc4)CC3)c3ccccc23)n1 (as salt: hydrochloride) [Example 1, 6-{4-[2-(4-Phenethyl-piperazin-1-yl)-ethyl]-naphthalen-1-yl)-pyridin-2-ylamine] | 80 to 105 °C |
| Nc1cccc(-c2ccc(CCN3CC4C(N)C4C3)c3ccccc23)n1 (centres unmarked) (as salt: hydrochloride) [Example 2, 3-{2-[4-(6-Amino-pyridin-2-yl)-naphthalen-1-yl]-ethyl}-3-aza-bicyclo[3.1.0]hex-6-ylamine] | 250 to 260 °C |
| Nc1cccc(-c2ccc(CCN3CCC(C(c4ccccc4)c4ccccc4)CC3)c3ccccc23)n1 (as salt: hydrochloride) [Example 3, 6-{4-[2-(4-Benzhydryl-piperidin-1-yl)-ethyl]-naphthalen-1-yl}-pyridin-2-ylamine] | 225 to 235 °C |
| Nc1cccc(-c2ccc(CCNCc3ccc4c(c3)OCO4)c3ccccc23)n1 (as salt: hydrochloride) [Example 6, 6-(4-{2-[(Benzo[1,3]dioxol-5-ylmethyl)-amino]-ethyl}-naphthalen-1-yl)-pyridin-2-ylamine] | 80 to 110 °C |
| Nc1cccc(-c2ccc(CCNCc3ccc(F)c(F)c3)c3ccccc23)n1 (as salt: hydrochloride) [Example 7, 6-{4-[2-(3,4-Difluoro-benzylamino)-ethyl]-naphthalen-1-yl}-pyridin-2-ylamine] | 70 to 80 °C |
| COc1cc(CNCCc2ccc(-c3cccc(N)n3)c3ccccc23)cc(OC)c1OC (as salt: hydrochloride) [Example 8, 6-{4-[2-(3,4,5-Trimethoxy-benzylamino)-ethyl]-naphthalen-1-yl}-pyridin-2-ylamine] | 75 to 95 °C |
| Nc1cccc(-c2ccc(CCNCc3cccc(Cl)c3)c3ccccc23)n1 (as salt: hydrochloride) [Example 9, 6-{4-[2-(3-Chloro-benzylamino)-ethyl]-naphthalen-1-yl}-pyridin-2-ylamine] | 60 to 75 °C |
| Nc1cccc(-c2ccc(CCNCc3ccco3)c3ccccc23)n1 (as salt: hydrochloride) [Example 10, 6-(4-{2-[(Furan-2-ylmethyl)-amino]-ethyl}-naphthalen-1-yl)-pyridin-2-ylamine] | 185 to 205 °C |
| Nc1cccc(-c2ccc(CCNCc3ccc(Cl)c(Cl)c3)c3ccccc23)n1 (as salt: hydrochloride) [Example 11, 6-{4-[2-(3,4-Dichloro-benzylamino)-ethyl]-naphthalen-1-yl}-pyridin-2-ylamine] | 145 to 170 °C |
| Nc1cccc(-c2ccc(OCCNCc3ccc4c(c3)OCO4)c3ccccc23)n1 (as salt: hydrochloride) [Example 14, 6-(4-{2-[(Benzo[1,3]dioxol-5-ylmethyl)-amino]-ethoxy}-naphthalen-1-yl)-pyridin-2-ylamine] | 60 to 80 °C |
| COc1cc2c(cc1OC)CN(CCOc1ccc(-c3cccc(N)n3)c3ccccc13)CC2 (as salt: hydrochloride) [Example 15, 6-{4-[2-(6,7-Dimethoxy-3,4-dihydro-1H-isoquinolin-2-yl)-ethoxy]-naphthalen-1-yl}-pyridin-2-ylamine] | 130 to 150 °C |
| Nc1cccc(-c2ccc(OCCN3CC4C(N)C4C3)c3ccccc23)n1 (centres unmarked) (as salt: hydrochloride) [Example 16, 3-{2-[4-(6-Amino-pyridin-2-yl)-naphthalen-1-yloxy]-ethyl}-3-aza-bicyclo[3.1.0]hex-6-ylamine] | 140 to 155 °C |
| CN(C)CCCCOc1ccc(-c2cccc(N)n2)c2ccccc12 (as salt: hydrochloride) [Example 26, 6-[4-(4-Dimethylamino-butoxy)-naphthalen-1-yl]-pyridin-2-ylamine] | 78 to 90 °C |

Second part, the compound after the results:

| melting point | SMILES |
| --- | --- |
| 45 to 80 °C | Nc1cccc(-c2ccc(OCCN3CCN(CCc4ccccc4)CC3)c3ccccc23)n1 (as salt: hydrochloride) [Example 17, 6-{4-[2-(4-Phenethyl-piperazin-1-yl)-ethoxy]-naphthalen-1-yl}-pyridin-2-ylamine] |
| 70 to 90 °C | Nc1cccc(-c2ccc(OCCN3CCC(N)C3)c3ccccc23)n1 (centres unmarked) (as salt: hydrochloride) [Example 18, 6-{4-[2-(3-Amino-pyrrolidin-1-yl)-ethoxy]-naphthalen-1-yl}-pyridin-2-ylamine] |
| 265 to 285 °C (dec.) | Nc1cccc(-c2ccc(OC3CCN(Cc4ccccc4)CC3)c3ccccc23)n1 (as salt: hydrochloride) [Example 24, 6-[4-(1-Benzyl-piperidin-4-yloxy)-naphthalen-1-yl]-pyridin-2-ylamine] |
| 160 to 170 °C | Nc1cccc(-c2ccc(OC3CCN(Cc4ccccc4)C3)c3ccccc23)n1 (centres unmarked) (as salt: hydrochloride) [Example 25, 6-[4-(1-Benzyl-pyrrolidin-3-yloxy)-naphthalen-1-yl]-pyridin-2-ylamine] |
| 65 to 75 °C | Nc1cccc(-c2ccc(OC3CCNCC3)c3ccccc23)n1 (as salt: hydrochloride) [Example 27, 6-[4-(Piperidin-4-yloxy)-naphthalen-1-yl]-Pyridin-2-ylamine] |
| 60 to 70 °C | Nc1cccc(-c2ccc(OC3CCNC3)c3ccccc23)n1 (centres unmarked) (as salt: hydrochloride) [Example 28, 6-[4-(Pyrrolidin-3-yloxy)-naphthalen-1-yl]-pyridin-2-ylamine] |
| 198 to 210 °C | CC(C)CN1CCC(Oc2ccc(-c3cccc(N)n3)c3ccccc23)CC1 (as salt: hydrochloride) [Example 29, 6-[4-(1-Isobutyl-piperidin-4-yloxy)-naphthalen-1-yl]-pyridin-2-ylamine] |
| 178 to 195 °C | Nc1cccc(-c2ccc(OC3CCN(Cc4ccco4)CC3)c3ccccc23)n1 (as salt: hydrochloride) [Example 30, 6-[4-(1-Furan-2-ylmethyl-piperidin-4-yloxy)-naphthalen-1-yl]-pyridin-2-ylamine] |
| 78 to 85 °C | CC(C)CN1CCC(Oc2ccc(-c3cccc(N)n3)c3ccccc23)C1 (centres unmarked) (as salt: hydrochloride) [Example 31, 6-[4-(1-Isobutyl-pyrrolidin-3-yloxy)-naphthalen-1-yl]-pyridin-2-ylamine] |
| 140 to 160 °C | Nc1cccc(-c2ccc(OC3CCN(Cc4ccco4)C3)c3ccccc23)n1 (centres unmarked) (as salt: hydrochloride) [Example 32, 6-[4-(1-Furan-2-ylmethyl-pyrrolidin-3-yloxy)-naphthalen-1-yl]-pyridin-2-ylamine] |
| 179 to 187 °C | CN1CCC(Oc2ccc(-c3cccc(N)n3)c3ccccc23)CC1 (as salt: hydrochloride) [Example 33, 6-[4-(1-Methyl-piperidin-4-yloxy)-naphthalen-1-yl]-pyridin-2-ylamine] |
| 105 to 120 °C | CN(C)CCCOc1ccc(-c2cccc(N)n2)c2ccccc12 (as salt: hydrochloride) [Example 35, 6-[4-(3-Dimethylamino-propoxy)-naphthalen-1-yl]-pyridin-2-ylamine] |
| 65 to 90 °C | CN(CCOc1ccc(-c2cccc(N)n2)c2c1CCCC2)C(C)(C)C (as salt: hydrochloride) [Example 39, 6-{4-[2-(tert-Butyl-methyl-amino)-ethoxy]-5,6,7,8-tetrahydro-naphthalen-1-yl}-pyridin-2-ylamine] |
| 50 to 60 °C | CC(C)N(CCOc1ccc(-c2cccc(N)n2)c2c1CCCC2)C(C)C (as salt: hydrochloride) [Example 40, 6-[4-(2-Diisopropylamino-ethoxy)-5,6,7,8-tetrahydro-naphthalen-1-yl]-pyridin-2-ylamine] |
| 105 to 130 °C | Nc1cccc(-c2ccc(OCCN3CCN(CCc4ccccc4)CC3)c3c2CCC3)n1 (as salt: hydrochloride) [Example 61, 6-[7-[(4-Phenethylpiperazin-1-yl)-ethoxy]-indan-4-yl]-pyridin-2-ylamine] |
| 170 to 190 °C | CC(C)CN1CCN(CCOc2ccc(-c3cccc(N)n3)c3c2CCC3)CC1 (as salt: hydrochloride) [Example 62, 6-[7-[(4-Isobutylpiperazin-1-yl)-ethoxy]-indan-4-yl]-pyridin-2-ylamine] |
| 218 to 230 °C | Nc1cccc(-c2ccc(OC3CCCCC3N)c3ccccc23)n1 (centres unmarked) (as salt: hydrochloride) [Example 63, 6-[4-(2-Amino-cyclohexyloxy)-naphthalen-1-yl]-pyridin-2-ylamine] |
| 164 to 185 °C | Nc1cccc(-c2ccc(OCC3CCCNC3)c3ccccc23)n1 (centres unmarked) (as salt: hydrochloride) [Example 64, 6-[4-(Piperidin-3-ylmethoxy)-naphthalen-1-yl]-pyridin-2-ylamine] |
| 133 to 148 °C | CC(C)CN1CC(Oc2ccc(-c3cccc(N)n3)c3ccccc23)C1 (as salt: hydrochloride) [Example 65, 6-[4-(1-Isobutyl-azetidin-3-yloxy)-naphthalen-1-yl]-pyridin-2-ylamine] |
| 75 to 90 °C | Nc1cccc(-c2ccc(OC3CN(Cc4ccco4)C3)c3ccccc23)n1 (as salt: hydrochloride) [Example 67, 6-[4-(1-Furan-2-ylmethyl-azetidin-3-yloxy)-naphthalen-1-yl]-pyridin-2-ylamine] |
| 150 to 180 °C | Nc1cccc(-c2ccc(OC3CN(Cc4cccnc4)C3)c3ccccc23)n1 (as salt: hydrochloride) [Example 72, 6-[4-(1-Pyridin-3-ylmethyl-azetidin-3-yloxy)-naphthalen-1-yl]-pyridin-2-ylamine] |
| 88 to 110 °C | Nc1cccc(-c2ccc(OCC3CNC3)c3ccccc23)n1 (as salt: hydrochloride) [Example 73, 6-[4-(Azetidin-3-ylmethoxy)-naphthalen-1-yl]-pyridin-2-ylamine] |
